This note sets out measurements from patent US20110245081A1, “HERBICIDE COMPOSITION FOR LAWN” (priority 2006, published 2011).

Common to all, as to assay type: in vivo
Data set [1] deals with Digitaria ciliayis (Retz.) Koeler. Description: Test Example 1: soil treatment by mixing, herbicidal effect. Particulars: 1080 h. On the procedure:
(§1) On a field of Zoysia japonica sectioned to 100 cm×100 cm, seeds of Digitaria ciliayis (Retz.) Koeler, Poa annua L., Polygonum hydropiper L., Euphorbia supine Rafin, Oxalis comiculata L., Cyperus microiria were sown and covered with 0.5 cm soil. Seven days after weeds sowing, treatment was conducted with watering amount of 200 cc/m^2. The prescribed amount of test compound was sprayed with a small spray in the form of the formulation prepared according to the above-mentioned examples or a wettable powder of a single compound diluted with water.
(§2) The herbicidal effect and the degree of phytotoxicity to the lawn were studied 45 days after the agent treatment.
(§3) Herbicidal effect: 100%: complete death 0%: no effect Phytotoxicity: 100%: complete death 0%: no phytotoxicity
(§4) In the tables, ai means the effective component.

Data set [2] deals with Oxalis corniculata L. The data set is described as above. The following applies: 1080 h. On the procedure: as §1, §2, §3, §4
The test system of data set [3] is Poa annua L. The data set is described as above. The following applies: 1080 h. On the procedure: as §1, §2, §3, §4
Data set [4] has as its system Polygonum blumei. The description is as above. The following applies: 1080 h.
For data set [5], the system named is Erigeron canadensis. The description is as above. Particulars: 1080 h.
For data set [6], the system named is Chenopodium ficifolium. Described as above. The following applies: 1080 h.
Data set [7] concerns Digitaria ciliayis (Retz.) Koeler. Description: Test Example 2: foliage and soil treatment by mixing, herbicidal effect. The following applies: 1080 h. On the procedure: as §1, §3
(§5) A test section of Zoysia matrella had been prepared in the same method as in the Test Example 1 and on the 28th day after weeds sowing a treatment was conducted with watering amount of 200 cc/m2. The prescribed amount of test compound was sprayed with a small spray in the form of the formulation prepared according to the aforementioned examples or a wettable powder of a single compound diluted with water.
(§6) The herbicidal effect and the degree of phytotoxicity to the lawn were studied 45 days after the agent treatment in the same manner as Test Example 1.

Data set [8] relates to Oxalis corniculata L. Described as above. Particulars: 1080 h. On the procedure: as §1, §3, §5, §6
Data set [9] has as its system Poa annua L. The data set is described as above. The following applies: 1080 h. Here is the method: as §1, §3, §5, §6
Data set [10] concerns Polygonum blumei. The description is as above. Particulars: 1080 h. Here is the method:
as §1, §3, §5, §6

In data set [11] the test system is Erigeron canadensis. The data set is described as above. Particulars: 1080 h.
For data set [12], the system named is Chenopodium ficifolium. The description is as above. The following applies: 1080 h.
For data set [13], the system named is Zoysia matrella. The following applies: soil treatment, 45 days.
Data set [14] concerns Zoysia matrella. Particulars: foliage and soil treatment, 45 days.
Setting [15] is: soil treatment, 45 days, Ethoxysulfuron 125 g ai/ha.
The mark [16] stands for this setting: foliage and soil treatment, 45 days, Ethoxysulfuron 125 g ai/ha.
The mark [17] stands for this setting: soil treatment, 45 days, Fentrazamide 1500 g ai/ha.
The mark [18] stands for this setting: foliage and soil treatment, 45 days, Fentrazamide 1500 g ai/ha.
Where [19] appears, read: soil treatment, 45 days, Indanofan 1000 g ai/ha.
The mark [20] stands for this setting: foliage and soil treatment, 45 days, Indanofan 1000 g ai/ha.
[21] abbreviates: read-out: Herbicidal effect Digitaria ciliayis (Retz.) Koeler.
Where [22] appears, read: read-out: Herbicidal effect Oxalis corniculata L.
The mark [23] stands for this setting: read-out: Herbicidal effect Poa annua L.
[24] abbreviates: read-out: Herbicidal effect Polygonum blumei.
[25] abbreviates: read-out: Herbicidal effect Chenopodium ficifolium.
Where [26] appears, read: soil treatment, 45 days, Oxaziclomefone 150 g ai/ha.
[27] abbreviates: foliage and soil treatment, 45 days, Oxaziclomefone 150 g ai/ha.
Where [28] appears, read: soil treatment, 45 days, Asulam 1500 g ai/ha.
Setting [29] is: foliage and soil treatment, 45 days, Asulam 1500 g ai/ha.

Like-named read-outs stand apart in the source and are kept apart here.

Turning to `CCOc1ccccc1OS(=O)(=O)NC(=O)Nc1nc(OC)cc(OC)n1` [Ethoxysulfuron, 1-(4,6-dimethoxypyrimidin-2-yl)-3-(2-ethoxyphenoxysulfonyl)urea], the pest or weed control at 125 g/ha came out at 0% in data set [1] (setting [15]); 50% in [2] (setting [15]); 0% in [3] (setting [15]); 60% in data set [4] (setting [15]); 75% in [5] (setting [15]); 70% in data set [6] (setting [15]). The pest or weed control at 125 g/ha in data set [7] (setting [16]) turned out to be 0%; in data set [8] (setting [16]), 30%; in data set [9] (setting [16]) it was 0%; in data set [10] (setting [16]), 40%; in [11] (setting [16]) it was 60%; in data set [12] (setting [16]), 50%.
Take `CCN(C(=O)n1nnn(-c2ccccc2Cl)c1=O)C1CCCCC1` [Fentrazamide, 4-(2-chlorophenyl)-N-cyclohexyl-N-ethyl-4,5-dihydro-5-oxo-1H-terazol-1-carboxamide]: the pest or weed control at 1500 g/ha in [1] (setting [17]) is 90%; in data set [2] (setting [17]), 0%; in [3] (setting [17]), 80%; in data set [4] (setting [17]), 0%; in [5] (setting [17]), 0%; in data set [6] (setting [17]), 20%. Moreover, the pest or weed control at 1500 g/ha in data set [7] (setting [18]) amounted to 40%; in data set [8] (setting [18]), 0%; in data set [9] (setting [18]), 30%; in data set [10] (setting [18]), 0%; in data set [11] (setting [18]), 0%; in data set [12] (setting [18]) it was 0%. Moreover, the Zoysia matrella phytotoxicity in data set [13] (Fentrazamide 1500 g ai/ha) and in [14] (Fentrazamide 1500 g ai/ha) was 0% throughout.
Consider `CCC1(CC2(c3cccc(Cl)c3)CO2)C(=O)c2ccccc2C1=O` (racemic) [Indanofan, (RS)-2-[2-(3-chlorophenyl)-2,3-epoxypropyl]-2-ethylindan-1,3-dione], for which the pest or weed control at 1000 g/ha is 0% in [1] (setting [19]); 50% in [2] (setting [19]); 0% in [3] (setting [19]); 60% in data set [4] (setting [19]); 75% in data set [5] (setting [19]); 70% in data set [6] (setting [19]). In addition, the pest or weed control at 1000 g/ha in data set [7] (setting [20]) was 30%; in data set [8] (setting [20]) it was 0%; in data set [9] (setting [20]) it was 30%; in data set [10] (setting [20]), 0%; in data set [11] (setting [20]), 0%; in data set [12] (setting [20]), 20%.
As for `CCN(CC)C(=O)n1cnc(S(=O)(=O)c2c(C)cc(C)cc2C)n1` [Cafenstrole, N,N-diethyl-3-meticylsulfonyl-1H-1,2,4-triazol-1-carboxamide], the pest or weed control at 2000 g/ha turned out to be 0% in [1] (setting [21]); 50% in data set [2] (setting [22]); 0% in data set [3] (setting [23]); 60% in [4] (setting [24]); 75% in data set [5] (soil, read-out: Herbicidal effect Erigeron canadensis); 70% in data set [6] (setting [25]). In addition, the pest or weed control at 2000 g/ha in data set [7] (setting [21]) worked out at 40%; in [8] (setting [22]), 0%; in data set [9] (setting [23]), 30%; in data set [10] (setting [24]), 0%; in data set [11] (read-out: Herbicidal effect Erigeron canadensis), 0%; in [12] (setting [25]), 20%. The Zoysia matrella phytotoxicity in [13] (Cafenstrole 2000 g ai/ha) and in [14] (Cafenstrole 2000 g ai/ha) was 0% throughout.
Consider `CC1=C(c2ccccc2)C(=O)N(C(C)(C)c2cc(Cl)cc(Cl)c2)CO1` [Oxaziclomefone, 3-[1-(3,5-dichlorophenyl)-1-methylethyl]-3,4-dihydro-6-methyl-5-phenyl-2H-1,3-oxazin-4-one], for which the pest or weed control at 150 g/ha in data set [1] (setting [26]) is 90%; in data set [2] (setting [26]) it was 0%; in data set [3] (setting [26]) it was 90%; in [4] (setting [26]) it was 0%; in data set [5] (setting [26]), 0%; in [6] (setting [26]), 0%. Further, the pest or weed control at 150 g/ha worked out at 30% in [7] (setting [27]); 0% in data set [8] (setting [27]); 30% in data set [9] (setting [27]); 0% in data set [10] (setting [27]); 0% in data set [11] (setting [27]); 0% in data set [12] (setting [27]).
Turning to `COC(=O)NS(=O)(=O)c1ccc(N)cc1` [Asulam, methyl sulfanyl carbamate], the pest or weed control at 1500 g/ha stood at 20% in data set [1] (setting [28]); 0% in data set [2] (setting [28]); 20% in data set [3] (setting [28]); 0% in data set [4] (setting [28]); 0% in [5] (setting [28]); 0% in data set [6] (setting [28]). Moreover, the pest or weed control at 1500 g/ha came out at 40% in data set [7] (setting [29]); 60% in data set [8] (setting [29]); 30% in data set [9] (setting [29]); 70% in data set [10] (setting [29]); 60% in [11] (setting [29]); 60% in data set [12] (setting [29]).
